According to patent US9233978B2, “6-fused heteroaryldihydropyrimidines for the treatment and prophylaxis of hepatitis B virus infection” (Hoffmann-La Roche Inc., priority 2014, dated 2016):
pEC50: −log10 of the molar value. ≈ marks a conversion by molar mass, not a printed value.

How the values were obtained:
[1] = Human microsomal metabolic stability; format: in vitro ADME; conditions: human microsomes 0.5 mg/mL, 1 μM test compound, NADPH, 37° C., pH 7.4, 0-30 minutes
Description: Human Microsomes (BD Gentest) were preincubated with test compound for 10 minutes at 37° C. in 100 mM phosphate buffer, pH 7.4. The reactions were initiated by adding NADPH or NADPH regenerating system to give a final incubation volume of 400 μL. For NADPH system, the final incubations contained 1 μM test compound, 0.5 mg/mL liver microsomal protein, 1 mM NADPH in 100 mM phosphate buffer, pH 7.4. For the NADPH regenerating system, the final incubations contained 1 μM test compound, 0.5 mg/mL liver microsomal protein, 3 mM glucose 6-phosphate, 1 mM NADP, 3 mM MgCl2 and 0.05 mg/mL glucose 6-phosphate dehydrogenase in 100 mM phosphate buffer, pH 7.4. After incubation times of 0, 3, 6, 9, 15 and 30 minutes at 37° C., 1 sample was obtained from each time point and 50 μL of each sample was removed and transferred to 150 μL of methanol solution which was maintained at 4° C. and contained 2 μM tolbutamide as internal standard. Following precipitation and centrifugation, the amount of compound remaining in the samples were determined by LC-MS/MS. Controls of no NADPH or no NADPH regenerating system at zero and 30 minutes were also prepared and analyzed.

Lysa solubility = format: physicochemical; conditions: 0.05 M phosphate buffer (pH 6.5); for solubility thermodynamic: phosphate buffer, pH 6.5, aqueous buffer, thermodynamic from solid
Description: Samples were prepared in duplicate from 10 mM DMSO stock solutions. After evaporation of DMSO with a centrifugal vacuum evaporator, the residue was solved in 0.05 M phosphate buffer (pH 6.5), stirred for one hour and shook for two hours. After one night, the solution was filtered using a microtiter filter plate. Then the filtrate and its 1/10 dilution were analyzed by direct UV measurement or by HPLC-UV. […] The results were in μg/mL. In case the percentage of sample measured in solution after evaporation divided by the calculated maximum of sample amount was over 80%, the solubility was reported as higher than this value.

HBV = assay: Anti-HBV activity in vitro, HepG2.2.15 cells, extracellular HBV DNA by qPCR; format: cell-based; conditions: Hepatitis B virus, HepG2.2.15, 120 h, HepG2.2.15 cells; HBV replication inhibited by 50%, extracellular HBV DNA by qPCR; five days after compound treatment; read-out: EC50
Excerpt: HepG2.2.15 and HepDE19 are stably-transfected cell lines containing the HBV genome. Both cell lines are derived from the hepatoblastoma cell line Hep G2 (American Type Culture Collection, ATCC® HB-8065™) by the published procedures described in references: MA Selles et al. Proc. Natl. Acad. Sci. USA 1987, 84, 1005-1009 and H Guo et al. Journal of Virology 2007, 81, 12472-12484, respectively. Both cell lines were maintained in Dulbecco's modified Eagle's medium (DMEM)-F12 medium supplemented with 10% fetal bovine serum, 100 U/mL penicillin, 100 μg/mL streptomycin, and 0.5 mg/mL of G418.
While HepG2.2.15 cells constitutively support HBV replication and production of virus particles, HepDE19 cells are inducible by tetracycline. Addition of 1 μg/mL tetracycline in culture medium suppresses HBV replication in HepDE19 cells, whereas switching to tetracycline-free medium resumes this process.
HepG2.2.15 cells were seeded into 96-well plates (3×10^4 cells in 100 μL media per well) and incubated overnight at 37° C. The test compounds were serially half-log diluted in DMSO, then diluted 100 times in culture media. 100 μL of diluted compounds were added into the plates to reach 0.5% final concentration of DMSO in every well. Five days after compound treatment, culture supernatant was collected for further analysis.
For quantitative PCR detection of extracellular HBV DNA, 100 μL of culture supernatant was collected and processed in MagNA Pure 96 Nucleic Acid Purification System (Roche Applied Science) for viral DNA extraction. The extracted samples were subjected to HBV DNA quantification by qPCR.

Structure (SMILES)	Human Microsomal Clearance [1] [mL/min/kg]	Lysa (Lysa solubility) [µg/mL]	pEC50 (HBV)	solubility thermodynamic (Lysa solubility) [µg/mL]
COC(=O)C1=C(CN2CCN3C(=O)N(C(C)C)C[C@H]3[C@@H]2C(=O)O)NC(c2nccs2)=N[C@H]1c1ccc(F)c(F)c1C (single isomer, unassigned) [Example 85A]	4.9	> 660	6.59	–
COC(=O)C1=C(CN2CCN3C(=O)OC(C)(C)[C@]3(CC(=O)O)C2)NC(c2nccs2)=N[C@H]1c1ccc(F)cc1Cl (single isomer, unassigned) [Example 90A]	0.3	–	7.02	–
CCOC(=O)C1=C(CN2CCN3C(=O)N(C4(CC(=O)O)CC4)CC3C2)NC(c2nccs2)=N[C@H]1c1cccc(F)c1Cl (stereo in doubt) [Example 48, 2-[1-[(8aR)-7-[[(4R)-4-(2-chloro-3-fluoro-phenyl)-5-ethoxycarbonyl-2-thiazol-2-yl-1,4-dihydropyrimidin-6-yl]methyl]-3-oxo-5,6,8,8a-tetrahydro-1H-imidazo[1,5-a]pyrazin-2-yl]cyclopropyl]acetic acid]	3.8	–	7.66	> 807
CCOC(=O)C1=C(CN2CCN3C(=O)N([C@@H]4CCCC4C(=O)O)C[C@@H]3C2)NC(c2nccs2)=N[C@H]1c1cccc(F)c1Cl (stereo in doubt) [Example 50, (1R,2R)-2-[(8aS)-7-[[(4R)-4-(2-chloro-3-fluoro-phenyl)-5-ethoxycarbonyl-2-thiazol-2-yl-1,4-dihydropyrimidin-6-yl]methyl]-3-oxo-5,6,8,8a-tetrahydro-1H-imidazo[1,5-a]pyrazin-2-yl]cyclopentanecarboxylic acid]	3.6	–	7.82	339 (≈ 537 µM)
CCOC(=O)C1=C(CN2CCN3C(=O)N(CC(C)C(=O)O)C[C@@H]3C2)NC(c2nccs2)=N[C@H]1c1ccccc1Cl (stereo partly drawn) [Example 20, 3-[(8aS)-7-[[(4R)-4-(2-chlorophenyl)-5-ethoxycarbonyl-2-thiazol-2-yl-1,4-dihydropyrimidin-6-yl]methyl]-3-oxo-5,6,8,8a-tetrahydro-1H-imidazo[1,5-a]pyrazin-2-yl]-2-methyl-propanoic acid]	0.1	–	7.28	> 780
CCOC(=O)C1=C(CN2CCN3C(=O)N(c4ccccc4C(=O)O)C[C@@H]3C2)NC(c2nccs2)=N[C@H]1c1cccc(F)c1Cl [Example 28, (R)-6-[(S)-2-(2-Carboxy-phenyl)-3-oxo-hexahydro-imidazo[1,5-a]pyrazin-7-ylmethyl]-4-(2-chloro-3-fluoro-phenyl)-2-thiazol-2-yl-1,4-dihydro-pyrimidine-5-carboxylic acid ethyl ester]	4.4	–	7.52	337 (≈ 527 µM)
COC(=O)C1=C(CN2CCN3C(=O)N(c4cccc(C(=O)O)c4)C[C@@H]3C2)NC(c2nccs2)=N[C@H]1c1ccc(F)cc1Cl [Example 29, (R)-6-[(S)-2-(3-Carboxy-phenyl)-3-oxo-hexahydro-imidazo[1,5-a]pyrazin-7-ylmethyl]-4-(2-chloro-4-fluoro-phenyl)-2-thiazol-2-yl-1,4-dihydro-pyrimidine-5-carboxylic acid methyl ester]	0.3	–	8.15	–
COC(=O)C1=C(CN2CCN3C(=O)N(C(C)C)CC3(CC(=O)O)C2)NC(c2nccs2)=N[C@H]1c1ccc(F)cc1Cl (stereo partly drawn) [Example 31, 2-[7-[[(4R)-4-(2-chloro-4-fluoro-phenyl)-5-methoxycarbonyl-2-thiazol-2-yl-1,4-dihydropyrimidin-6-yl]methyl]-2-isopropyl-3-oxo-1,5,6,8-tetrahydroimidazo[1,5-a]pyrazin-8a-yl]acetic acid]	0.3	–	7.00	> 775
